Drawing on publication PMC5770468, “Cardiac glycoside/aglycones inhibit HIV-1 gene expression by a mechanism requiring MEK1/2-ERK1/2 signaling” (Scientific Reports, 2018), this text covers ERK1/2 activation for one compound.

Structures are written as SMILES.

The assay has as its system ERK1/2. Description: ERK1/2 activation (phospho/total) by western blot in HeLa rtTA-HIV(Gag-GFP) cells. It is filed as cell-based, human. The settings on record: relative to DMSO (+). How it is done:
Figure 6 CSs control HIV-1 gene expression through intracellular signaling. HeLa rtTA-HIV(Gag-GFP) cells were pre-treated with/without pathway inhibitor overnight (~15 h) and treated with ~IC80s of CSs. […] (a–c) ERK1/2, MK-2, and JNK1/2/3 are activated upon treatment of cells with CSs (n ≥ 4–6, 3–4, and 3–6, resp., mean, s.e.m.). Graphs quantifying the activation level (phospho/total protein) of each MAP/MAPK by western blot. In (a), the results of pre-treating cells with a MEK1/2 inhibitor (12 μM U0126, MEKi) on ERK1/2 activation is also shown and a representative immunoblot is provided in Supplementary Figure S9c. (d) Representative immunoblots of MAP/MAPK activation levels from (a–c). (e–g) MEK1/2 activation may be involved in CS inhibition of HIV-1 gene expression. The signaling pathway(s) used by a CS to inhibit HIV-1 expression was determined by detecting Gag-GFP fluorescence in cell lysates (~35 μg) by reducing SDS-PAGE after pre-treatment of cells with a MEK1/2 (12 μM U0126, white), p38α/β/β2 (15 μM SB203580/p38i, gray), or JNK1/2/3 (1.25 μM SP600125/JNKi, hatched) inhibitor (n ≥ 5–7, 4–8, and 3–7, resp., mean, s.e.m.). Results were shown relative to DMSO (+). […]
Figure 7 Activation of the MEK1/2-ERK1/2 signaling pathway suppresses HIV-1 gene expression. […] RNAs were quantified by qRT-PCR as described in Figures 4a,b. […]

On to `COc1ccc(C[C@H]2NC[C@H](O)[C@H]2OC(C)=O)cc1` [anisomycin, Anisomycin], for which the ERK1/2 activation result is on record as “activated”.
